This is an account of results in patent US7943184B2, “Process for preparing an extract from ivy leaves” (Engelhard Arzneimittel GmbH & Co. KG, priority 2003, dated 2011).

Data set [1] is described as follows: Absorption study by means of the biopharmaceutics classification system (BCS). In kind it is in vitro ADME. Here is the method:
It was possible to show in an absorption study by means of the biopharmaceutics classification system (BCS) that α-hederin is to be attributed with a moderate absorption (10-90%). […] Absorption studies were carried out on rats for this purpose.

Data set [2] in a line: Absorption studies on rats: α-hederin plasma concentration after i.v. or oral administration of ivy leaf extracts. Type of data set: in vivo. To be noted: all samples after i.v. or p.o. administration of extract A or B. An excerpt: The influence of administration of two different extracts on the plasma concentration of α-hederin was subsequently investigated. The change in the plasma concentration of α-hederin with a single administration compared with multiple administration of the extract and with different blood sampling times after administration was also investigated, as was the α-hederin absorption rate. Two extracts whose saponin distribution is shown in Table 1 below were selected for this purpose:
For intravenous administration, the required amount of extract was dissolved in 11% (m/m) ethanol, filtered and injected. It was aimed to administer a volume of 2 ml of extract solution (dose in each case [mg/kg of bodyweight]: 25). A blood sample was taken from the animals 5 minutes after the administration. About 2 ml of whole blood with added EDTA for anticoagulation were required for each sample.
Suspensions of the extracts in glycerol were prepared for oral administration. The animals were gavaged with about 2 ml of these suspensions (dose in each case [mg/kg of bodyweight]: 1000 and 166.66). 2 ml of blood were taken from each of the animals 1 and 3 hours after the last administration in each case.
The total saponin content takes account of the molar masses of the two constituents and is based on α-hederin. The total saponin content in extract A in this case was 9.8%, based on α-hederin. […]

Data set [3] deals with smooth muscles. The data set is described as follows: Spasmolytic activity / relaxation of smooth muscles. The note with it: via binding to β-adrenergic receptors; recent studies by the applicant.

SMILES strings stand for the structures.

Regarding `C[C@@H]1O[C@@H](O[C@H]2[C@H](O[C@H]3CC[C@@]4(C)[C@@H](CC[C@]5(C)[C@@H]4CC=C4[C@@H]6CC(C)(C)CC[C@]6(C(=O)O[C@@H]6O[C@H](CO[C@@H]7O[C@H](CO)[C@@H](O[C@@H]8O[C@@H](C)[C@H](O)[C@@H](O)[C@H]8O)[C@H](O)[C@H]7O)[C@@H](O)[C@H](O)[C@H]6O)CC[C@]45C)[C@]3(C)CO)OC[C@H](O)[C@@H]2O)[C@H](O)[C@H](O)[C@H]1O` [hederacoside C], the “permeation through the membranes” value in data set [1] (same conditions as BCS absorption study) was “did not permeate through the membranes”. For the same compound, the “Hederacoside C in plasma samples” value in data set [2] is “not detectable”.

As for `C[C@@H]1O[C@@H](O[C@H]2[C@H](O[C@H]3CC[C@@]4(C)[C@@H](CC[C@]5(C)[C@@H]4CC=C4[C@@H]6CC(C)(C)CC[C@]6(C(=O)O)CC[C@]45C)[C@]3(C)CO)OC[C@H](O)[C@@H]2O)[C@H](O)[C@H](O)[C@H]1O` [α-hederin], in data set [1] (biopharmaceutics classification system, moderate absorption), the “absorption (BCS)” value is reported as 10-90%. Further, the “relaxation of smooth muscles” value in data set [3] was “causes relaxation of smooth muscles”.
